These results are taken from patent US20230414762A1, “PROSTATE-SPECIFIC MEMBRANE ANTIGEN (PSMA)-TARGETED PRODRUG FOR SELECTIVE KILLING OF CELLS […]” (The Johns Hopkins University, priority 2020, published 2023).

Non-standard residues stand in square brackets, D forms with d. Residues, ends and D or L forms follow the SMILES beside them. *: point of attachment. Dolaproine = CO[C@@H]([C@@H]1CCCN1)[C@@H](C)C(=O)O; Dil = CC[C@H](C)[C@H](NC)[C@@H](CC(=O)O)OC; X2 = C[C@@H](N*)[C@@H](O)c1ccccc1; NMeV = CN[C@H](C(=O)O)C(C)C

The test system of one data set is PSMA− PC3 flu cells. The data set is described as follows: In vitro cytotoxicity (XTT cell proliferation assay), PSMA- PC3 flu cells. The data set is classed as cell-based, human. (Tetrazolium assays rely on reduction of a dye to a coloured formazan, in cell work by metabolically active cells.)
Data set [1] is described as follows: In vivo toxicity in healthy mice (weight, survival, histopathology). Set-up: species or system C57BL/6 mice. As to conditions: healthy C57BL/6 mice, MMAE (free drug) 80 μg/kg IP daily for 30 days. The method, then:
The potential toxicity of SBPD-1 was evaluated in immunocompetent animals. MMAE (80 μg/kg), SBPD-1 (160 μg/kg), and 5% DMSO were administered to healthy C57BL/6 mice (n=5). Animals were monitored for 80 days after initiation of administration. […] Lung, liver, kidneys, salivary and lacrimal glands were removed from all tested animals at Day 80 after initiation of SBPD-1 treatment. […] Peripheral blood also was obtained from mice injected with vehicle, SBPD-1, and healthy untreated animals, and prepared serum for chemistry studies (n=5).
Male C57BL/6 mice were purchased from Jackson Laboratory. Ten-week-old mice were injected with the indicated doses of MMAE (formulated in 5% DMSO), SBPD-1 (formulated in saline) or 5% DMSO intraperitoneally (daily for 30 days, n=5). Animals were monitored daily for weight changes and other abnormalities for 80 days. Animals were euthanized in a CO2 chamber at day 80, and blood, lung, liver, kidney, salivary gland, and lacrimal gland were collected for complete blood counts, blood chemistry, and histopathological analyses. Complete blood counts including white blood cells (WBC), red blood cells (RBC), hemoglobin (HGB), hematocrit (HCT), mean corpuscular volume (MCV), mean corpuscular hemoglobin (MCH), mean corpuscular hemoglobin concentration (MCHC), and platelet (PLT) were measured using scil Vet ABC™ Hematology Analyzer (scil animal care company, Gurnee, IL). Blood chemistry parameters including blood urea nitrogen (BUN), glucose (GLU), Alkaline Phosphatase (ALP), total protein (T-Pro), Alanine aminotransferase (ALT) and Creatinine (Cre) were measured with Spotchem EZ chemistry analyzer (Arkray USA, Edina, MN). Hematoxylin and eosin slides were generated for five organs and examined by certified veterinary pathologist.

The next data set has as its system PSMA+ PC3 PIP cells. Put plainly: In vitro cytotoxicity (XTT cell proliferation assay), PSMA+ PC3 PIP cells. Format: cell-based, human.
A short description of data set [2]: Serum stability in murine serum (HPLC). Format: in vitro ADME, mouse. As to conditions: 48 h. The procedure:
Serum stability of prodrugs was analyzed using a modified method from previously published work. Chu et al., 2012. Prodrug stock solution (8 μL, 10 mM) was incubated with 100% mouse serum (final concentration of the serum was 80% after the mixing with prodrug solution) at 37° C. Aliquots (50 μL) were periodically removed at 2, 4, 8, 24, and 48 h, and diluted with cold ice CH3OH (100 μL) to precipitate proteins. The samples were centrifuged, and the supernatants were analyzed by HPLC. Stability was calculated based on the peak area of the prodrug at each time point. Experiments were performed in triplicate.

Take `CC[C@H](C)[C@@H]([C@@H](CC(=O)N1CCC[C@H]1[C@H](OC)[C@@H](C)C(=O)N[C@H](C)[C@@H](O)c1ccccc1)OC)N(C)C(=O)[C@@H](NC(=O)[C@@H](NC)C(C)C)C(C)C` [MMAE, monomethyl auristatin E] (H-[NMeV]V[Dil][Dolaproine]-X2): the IC50 (in general, the concentration needed to halve the response being measured) amounted to 40 pM in the data set on PSMA− PC3 flu cells and 39.2 pM with PSMA+ PC3 PIP cells. In data set [1], the “toxicity (weight loss, euthanasia)” value is reported as “severe toxicity”.
For `CC[C@H](C)[C@@H](C(CC(=O)N1CCC[C@H]1[C@H](OC)[C@@H](C)C(=O)N[C@H](C)[C@@H](O)c1ccccc1)OC)N(C)C(=O)[C@@H](NC(=O)[C@H](C(C)C)N(C)C(=O)CC[C@H](NC(=O)CCCCCCC(=O)NCCCC[C@H](NC(=O)N[C@@H](CCC(=O)O)C(=O)O)C(=O)O)C(=O)O)C(C)C` (stereo partly drawn) [SBPD-2, (4S,7S,10S,15S,30S,34S)-4-((S)-Sec-butyl)-3-(2-((S)-2-((1R,2R)-3-(((1S,2R)-1-hydroxy-1-phenylpropan-2-yl)amino)-1-methoxy-2-methyl-3-oxopropyl)pyrrolidin-1-yl)-2-oxoethyl)-7,10-diisopropyl-5,11-dimethyl-6,9,12,17,24,32-hexaoxo-2-oxa-5,8,11,16,25,31,33-heptaazahexatriacontane-15,30,34,36-tetracarboxylic acid], the remained intact in data set [2] stood at 90%.
